This is an account of results in BindingDB's records for patent US11547697 (Millennium Pharmaceuticals, 2023).

Each structure is given as a SMILES string. Some results are limits rather than exact numbers.

The target of one test is Phosphatidylinositol 4,5-bisphosphate 3-kinase catalytic subunit beta isoform (Homo sapiens, UniProt P42338). Description: Inhibition Assay of PI3K.
Sequence of Phosphatidylinositol 4,5-bisphosphate 3-kinase catalytic subunit beta isoform (P42338 whole entry, canonical isoform): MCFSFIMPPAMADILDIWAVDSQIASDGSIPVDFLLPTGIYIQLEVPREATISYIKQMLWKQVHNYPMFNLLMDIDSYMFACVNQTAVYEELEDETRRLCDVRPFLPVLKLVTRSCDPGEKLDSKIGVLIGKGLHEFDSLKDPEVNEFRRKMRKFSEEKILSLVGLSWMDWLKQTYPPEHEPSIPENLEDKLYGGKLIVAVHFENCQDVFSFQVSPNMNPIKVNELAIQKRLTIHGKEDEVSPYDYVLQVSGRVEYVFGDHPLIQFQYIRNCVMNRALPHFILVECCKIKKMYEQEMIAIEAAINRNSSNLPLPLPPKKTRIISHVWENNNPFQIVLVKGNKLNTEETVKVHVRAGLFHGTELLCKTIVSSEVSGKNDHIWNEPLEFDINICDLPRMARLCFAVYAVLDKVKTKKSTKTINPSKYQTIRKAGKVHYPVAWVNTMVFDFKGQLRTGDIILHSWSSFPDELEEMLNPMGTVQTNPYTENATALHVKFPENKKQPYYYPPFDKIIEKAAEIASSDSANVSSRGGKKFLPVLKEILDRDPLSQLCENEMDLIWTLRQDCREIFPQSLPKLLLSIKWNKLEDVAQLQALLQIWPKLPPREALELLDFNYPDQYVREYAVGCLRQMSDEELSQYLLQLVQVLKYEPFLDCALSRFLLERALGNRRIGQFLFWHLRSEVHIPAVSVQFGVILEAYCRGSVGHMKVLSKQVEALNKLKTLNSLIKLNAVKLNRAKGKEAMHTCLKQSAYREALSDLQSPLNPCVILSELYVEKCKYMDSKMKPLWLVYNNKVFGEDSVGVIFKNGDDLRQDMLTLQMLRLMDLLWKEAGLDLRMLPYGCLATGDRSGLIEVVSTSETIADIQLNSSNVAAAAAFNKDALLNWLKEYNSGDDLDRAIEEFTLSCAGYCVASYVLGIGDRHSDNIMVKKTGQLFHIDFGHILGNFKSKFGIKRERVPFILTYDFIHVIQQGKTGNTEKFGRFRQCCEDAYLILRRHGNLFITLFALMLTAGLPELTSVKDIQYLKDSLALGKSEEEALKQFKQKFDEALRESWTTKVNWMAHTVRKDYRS
By IC50 is commonly meant the concentration that inhibits the measured activity by half. Low values mean greater potency in that assay, high ones weaker potency in that assay. On to `Nc1nc2cc(-c3ccc4ncc(N5CCN(C(=O)C6(N)CC6)CC5)nc4c3)ccc2o1` [US11547697, Compound 226], for which the IC50 was over 10 µM. Same read-out and setting: the result for `Nc1nc2cc(-c3ccc4ncc(C(=O)N5CC[C@@H](n6cccn6)C5)n4c3)ccc2o1` [US11547697, Compound 477] reads over 10 µM; that for `Cc1ccc(NC(=O)c2cnc3ccc(-c4ccc5oc(N)nc5c4)cn23)cn1` [US11547697, Compound 294], over 10 µM; that for `Nc1nc2cc(-c3ccc4ncc(C(=O)N5CC(n6cccn6)C5)n4c3)ccc2o1` [US11547697, Compound 479], over 10 µM.

The next test deals with T1, Phosphatidylinositol 4,5-bisphosphate 3-kinase catalytic subunit delta isoform (Homo sapiens, UniProt O00329).
T1 sequence (O00329 whole entry): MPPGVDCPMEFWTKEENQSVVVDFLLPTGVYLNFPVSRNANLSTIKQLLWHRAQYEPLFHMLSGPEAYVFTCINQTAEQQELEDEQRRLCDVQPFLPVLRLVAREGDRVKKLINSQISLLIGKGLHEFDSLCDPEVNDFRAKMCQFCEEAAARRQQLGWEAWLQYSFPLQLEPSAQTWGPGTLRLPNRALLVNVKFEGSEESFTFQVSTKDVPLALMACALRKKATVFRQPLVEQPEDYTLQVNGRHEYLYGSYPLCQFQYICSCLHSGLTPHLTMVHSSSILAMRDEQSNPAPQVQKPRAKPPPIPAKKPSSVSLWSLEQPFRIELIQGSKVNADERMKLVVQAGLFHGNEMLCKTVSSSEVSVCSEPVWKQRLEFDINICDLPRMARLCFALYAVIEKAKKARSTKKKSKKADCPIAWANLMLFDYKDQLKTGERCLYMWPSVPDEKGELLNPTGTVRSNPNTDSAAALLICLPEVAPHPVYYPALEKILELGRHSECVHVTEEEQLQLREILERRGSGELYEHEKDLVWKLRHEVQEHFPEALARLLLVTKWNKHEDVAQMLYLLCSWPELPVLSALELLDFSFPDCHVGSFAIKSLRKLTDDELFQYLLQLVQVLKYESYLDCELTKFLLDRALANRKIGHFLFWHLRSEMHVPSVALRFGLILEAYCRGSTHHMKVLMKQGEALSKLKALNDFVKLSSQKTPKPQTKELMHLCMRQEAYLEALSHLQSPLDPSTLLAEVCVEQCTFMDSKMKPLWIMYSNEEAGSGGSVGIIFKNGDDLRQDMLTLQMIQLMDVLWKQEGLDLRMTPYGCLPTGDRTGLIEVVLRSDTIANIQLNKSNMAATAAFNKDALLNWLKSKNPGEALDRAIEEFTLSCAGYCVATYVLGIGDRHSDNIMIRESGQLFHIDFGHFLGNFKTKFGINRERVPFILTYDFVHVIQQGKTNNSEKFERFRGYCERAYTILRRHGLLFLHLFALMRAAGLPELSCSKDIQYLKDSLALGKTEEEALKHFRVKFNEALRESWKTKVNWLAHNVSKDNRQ
Description: Inhibition Assay of PI3K.
Compound `Nc1nc2cc(-c3ccc4ncc(C(=O)N(CCO)CCO)n4c3)ccc2o1` [US11547697, Compound 316] had an IC50 of over 10 µM. On the same count and under the same terms, the result for `CN1CCCN(c2cnc3ccc(-c4ccc5oc(N)nc5c4)cc3n2)CC1` [US11547697, Compound 136] reads over 10 µM; that for `C[C@H]1COCCN1C(=O)c1cnc2ccc(-c3ccc4oc(N)nc4c3)cn12` [US11547697, Compound 483], over 10 µM. The compound `C[C@H]1CN(c2cnc3ccc(-c4ccc5nc(N)sc5c4)cc3n2)CCN1` [US11547697, Compound 308] gave an IC50 of over 10 µM.

As for `Nc1nc2cc(-c3ccn4ncc(C(=O)N5CCOCC5)c4c3)ccc2o1` [US11547697, Compound 347], the 50% inhibitory concentration (IC50) was over 10 µM. As for `COCCn1cnc2ccc(-c3ccc4oc(N)nc4c3)cc2c1=O` [US11547697, Compound 272], the half-maximal inhibitory concentration (IC50) is over 10 µM. The same measure, in the same setting: the result for `C[C@H]1CN(c2cnc3ccc(-c4ccc5nc(N)oc5c4)cc3n2)CCN1` [US11547697, Compound 309] reads over 10 µM; that for `Cc1cc(-c2ccc3nc(N)oc3c2)cn2c(C(=O)N3CCOCC3)cnc12` [US11547697, Compound 449], over 10 µM; that for `CN1CCN(c2cnc3ccc(-c4ccc5nc(N)oc5c4)cc3n2)CC1` [US11547697, Compound 118], over 10 µM. On the same count and under the same terms, the result for `Nc1nc2ccc(-c3ccc4ncc(N5CCOCC5)nc4c3)cc2o1` [US11547697, Compound 117] reads over 10 µM; that for `Nc1nc2cc(-c3ccc4ncc(C(=O)N5CC6(C5)OCCO6)n4c3)ccc2o1` [US11547697, Compound 494], over 10 µM; that for `Nc1nc2c(-c3ccc4ncc(C(=O)N5CCOCC5)n4c3)cccc2o1` [US11547697, Compound 496], over 10 µM.

As for `Nc1nc2cc(-c3ccc4ncc(-c5ccccn5)nc4c3)ccc2o1` [US11547697, Compound 195], the IC50 is over 10 µM. Turning to `Nc1nc2cc(-c3ccc4ncc(C(=O)N5CCCCC5)n4c3)ccc2o1` [US11547697, Compound 196], the IC50 is over 10 µM. The same measure, in the same setting: the result for `Nc1nc2cc(-c3ccc4nccc(NC5CCOCC5)c4c3)ccc2o1` [US11547697, Compound 32] reads over 10 µM; that for `CC(=O)Nc1nc2ccc(-c3ccc4nc(N)oc4c3)cc2s1` [US11547697, Compound 242], over 10 µM; that for `CC1CN(C(=O)c2cnc3ccc(-c4ccc5oc(N)nc5c4)cn23)CCO1` (centres undefined) [US11547697, Compound 201], over 10 µM. On the same count and under the same terms, the result for `CC(=O)Nc1n[nH]c2cc(-c3ccc4oc(N)nc4c3)ccc12` [US11547697, Compound 430] reads over 10 µM; that for `CN(C)C1CN(c2cnc3ccc(-c4ccc5oc(N)nc5c4)cc3n2)C1` [US11547697, Compound 366], over 10 µM. In turn, `Nc1nc2cc(-c3ccc4ncc(C(=O)N5CC(F)C5)n4c3)ccc2o1` [US11547697, Compound 468] yielded an IC50 of over 10 µM.

In the case of `Nc1nc2cc(-c3ccc4ncc(C(=O)N5CCOCC5)n4n3)ccc2o1` [US11547697, Compound 105], the IC50 is over 10 µM. On the same count and under the same terms, the result for `Nc1nc2cc(-c3ccn4ncc(C(=O)N5CCCC5)c4c3)ccc2o1` [US11547697, Compound 346] reads over 10 µM; that for `Nc1nc2cc(-c3ccc4ncn(CCO)c(=O)c4c3)ccc2o1` [US11547697, Compound 184], over 10 µM; that for `CN1CCN(c2cnc3ccc(-c4ccc5nc(N)sc5c4)cc3n2)CC1` [US11547697, Compound 115], over 10 µM. The same measure, in the same setting: the result for `CN(CCN1CCOCC1)c1cnc2ccc(-c3ccc4oc(N)nc4c3)cc2n1` [US11547697, Compound 166] reads over 10 µM. Same read-out and setting: the result for `CN1CCN(C(=O)c2cnc3ccc(-c4ccc5nc(N)oc5c4)cn23)CC1` [US11547697, Compound 145] reads over 10 µM.

As to `Nc1nc2cc(-c3ccc4ncc(N5CCNC(=O)C5)nc4c3)ccc2o1` [US11547697, Compound 135], the IC50 was over 10 µM. `Nc1nc2ccc(-c3ccc4ncc(C(=O)N5CCOCC5)n4c3)cc2o1` [US11547697, Compound 124] displayed an IC50 of over 10 µM.

On to `COCCN1CCN(c2cnc3ccc(-c4ccc5oc(N)nc5c4)cc3n2)CC1` [US11547697, Compound 387], for which the IC50 was over 10 µM. Still for that read-out and setting: the result for `Nc1nc2ccc(-c3ccc4nc(N)sc4c3)cc2o1` [US11547697, Compound 243] reads over 10 µM; that for `CN1CCN(c2cnc3ccc(-c4ccc5sc(N)nc5c4)cc3n2)CC1` [US11547697, Compound 127], over 10 µM; that for `Nc1nc2cc(-c3ccc4c(N)n[nH]c4c3)ccc2o1` [US11547697, Compound 428], over 10 µM. On the same count and under the same terms, the result for `Nc1nc2cc(-c3ccc4ncc(C(=O)N5CC6CCC(C5)O6)n4c3)ccc2o1` [US11547697, Compound 504] reads over 10 µM; that for `Nc1nc2cc(-c3ccc4ncc(-c5cnn(CCO)c5)nc4c3)ccc2o1` [US11547697, Compound 108], over 10 µM; that for `Nc1nc2cc(-c3ccc4sc(N)nc4c3)cc(F)c2o1` [US11547697, Compound 437], over 10 µM. On the same count and under the same terms, the result for `Nc1nc2cc(-c3ccc4ncn(CCN5CCOCC5)c(=O)c4c3)ccc2o1` [US11547697, Compound 289] reads over 10 µM; that for `CC(=O)Nc1nc2cc(-c3cc(F)c4oc(N)nc4c3)ccc2s1` [US11547697, Compound 435], over 10 µM; that for `C[C@@H]1COCCN1C(=O)c1cnc2ccc(-c3ccc4oc(N)nc4c3)cn12` [US11547697, Compound 495], over 10 µM. `Nc1nc2cc(-c3ccc4nccn4c3)ccc2o1` [US11547697, Compound 40]: the half-inhibitory concentration (IC50) was over 10 µM. Same read-out and setting: the result for `CC(C)N1CCC(n2cnc3ccc(-c4ccc5oc(N)nc5c4)cc3c2=O)CC1` [US11547697, Compound 74] reads over 10 µM; that for `Nc1nc2cc(-c3ccc4ncc(N5CCOCC5)n4n3)ccc2o1` [US11547697, Compound 57], over 10 µM; that for `Nc1nc2cc(-c3ccc4nnc(-c5ccncc5)n4c3)ccc2o1` [US11547697, Compound 229], over 10 µM. Compound `Nc1nc2cc(-c3ccc4ncc(=O)[nH]c4c3)ccc2o1` [US11547697, Compound 72] gave an IC50 of over 10 µM. Still for that read-out and setting: the result for `Cc1nc2ccc(-c3ccc4oc(N)nc4c3)nn2c1-c1ccncc1` [US11547697, Compound 56] reads over 10 µM.

`Nc1nc2cc(-c3ccc4ncc(C(=O)N5CCOCC5)n4c3)ccc2s1` [US11547697, Compound 126] came in with an IC50 of over 10 µM. Still for that read-out and setting: the result for `Nc1nc2cc(-c3ccc4ncc(N5CC(n6cccn6)C5)nc4c3)ccc2o1` [US11547697, Compound 318] reads over 10 µM. Same read-out and setting: the result for `Nc1nc2cc(-c3ccc4ncc(N5CCN(C6CC6)CC5)nc4c3)ccc2o1` [US11547697, Compound 261] reads over 10 µM; that for `Nc1nc2cc(-c3cc(F)c4oc(N)nc4c3)ccc2o1` [US11547697, Compound 432], over 10 µM. The same measure, in the same setting: the result for `Nc1nc2cc(-c3ccc4ncn(C5CCNCC5)c(=O)c4c3)ccc2o1` [US11547697, Compound 75] reads over 10 µM; that for `Nc1nc2cc(-c3ccc4ncc(N5CCOCC5)nc4c3)ccc2s1` [US11547697, Compound 116], over 10 µM.

`Nc1nc2cc(-c3ccc4ncc(C(=O)N5CCn6cncc6C5)n4c3)ccc2o1` [US11547697, Compound 493] showed a half-maximal inhibitory concentration (IC50) of over 10 µM. Still for that read-out and setting: the result for `Nc1nc2cc(-c3ccc4ncc(N5CCOCC5)nc4c3)ccc2o1` [US11547697, Compound 64] reads over 10 µM; that for `Nc1cn2cc(-c3ccc4oc(N)nc4c3)ccc2n1` [US11547697, Compound 245], over 10 µM. Compound `Cc1cc(-c2ccc3ncc(C(=O)N4CCOCC4)n3c2)cc2nc(N)oc12` [US11547697, Compound 364] showed an IC50 of over 10 µM. Same read-out and setting: the result for `Nc1nc2cc(-c3ccc4ncc(C(=O)N5CCOCC5)n4c3)cnc2o1` [US11547697, Compound 400] reads over 10 µM.
